Experimental data taken from patent publication US9938258B2 (Karyopharm Therapeutics Inc., priority 2012, dated 2018).

What was measured:
[1] = system: UCH-2 cell line; experiment: MTT cell proliferation assay, UCH-2; format: cell-based; conditions: UCH2, incubation approximately 64-72 hours
Procedure: (§1) The MTT cell proliferation assay was used to study the cytotoxic properties of the compounds. The assay was performed according to the method described by Roche Molecular Biochemicals, with minor modifications. The assay is based on the cleavage of the tetrazolium salt, MTT, in the presence of an electron-coupling reagent. The water-insoluble formazan salt produced must be solubilized in an additional step. Cells grown in a 96-well tissue culture plate were incubated with the MTT solution for approximately 4 hours. After this incubation period, a water-insoluble formazan dye formed. After solubilization, the formazan dye was quantitated using a scanning multi-well spectrophotometer (ELISA reader). […] The cells were seeded at 5,000-10,000 cells in each well of 96-well plate in 100 μL of fresh culture medium and were allowed to attach overnight. The stock solutions of the compounds were diluted in 100 μL cell culture medium to obtain eight concentrations of each test compound, ranging from 1 nM to 30 μM. […] All optical densities were measured at 490 nm using a Vmax Kinetic Microplate Reader (Molecular Devices). In most cases, the assay was performed in duplicate and the results were presented as a mean percent inhibition to the negative control±SE. The following formula was used to calculate the percent of inhibition: Inhibition (%)=(1-(ODo/OD)) ×100. […]

[2] = system: Z138 cells; experiment: MTT cell proliferation assay, Z138; format: cell-based; conditions: Homo sapiens, Z-138, Z138 cells, approximately 64-72 hours incubation; read-out: MTT Assay IC50, Z138
Outline: (§2)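 Seeding 5,000-10,000 cells/well, overnight attachment; 8 concs, 1 nM–30 μM. MTT ~4 h, formazan solubilized, OD 490 nm. % inhibition vs negative control, mostly duplicate, mean±SE.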

[3] = system: HEP 3B cells; experiment: MTT cell proliferation assay, HEP 3B; format: cell-based; conditions: Homo sapiens, Hep3B, incubation approximately 64-72 hours
Procedure: (§3) The MTT cell proliferation assay was used to study the cytotoxic properties of the compounds. The assay was performed according to the method described by Roche Molecular Biochemicals, with minor modifications. The assay is based on the cleavage of the tetrazolium salt, MTT, in the presence of an electron-coupling reagent. The water-insoluble formazan salt produced must be solubilized in an additional step. Cells grown in a 96-well tissue culture plate were incubated with the MTT solution for approximately 4 hours. After this incubation period, a water-insoluble formazan dye formed. After solubilization, the formazan dye was quantitated using a scanning multi-well spectrophotometer (ELISA reader). […] The cells were seeded at 5,000-10,000 cells in each well of 96-well plate in 100 μL of fresh culture medium and were allowed to attach overnight. The stock solutions of the compounds were diluted in 100 μL cell culture medium to obtain eight concentrations of each test compound, ranging from 1 nM to 30 μM. […] All optical densities were measured at 490 nm using a Vmax Kinetic Microplate Reader (Molecular Devices). In most cases, the assay was performed in duplicate and the results were presented as a mean percent inhibition to the negative control±SE. The following formula was used to calculate the percent of inhibition: Inhibition (%)=(1-(ODo/OD)) ×100.
(§4) The M24 cell line is derived from human melanoma cells. The U2OS cell line is a human osteosarcoma cell line expressing wild type p53 and Rb, but lacking p16. The MM1S cell line is a multiple myeloma cell line; the parent cell line, MM.1, was established from peripheral blood of a multiple myeloma patient who had become resistant to steroid-based therapy. The RPMI8226 cell line is derived from human B lymphocyte cells. NHDF cells are normal human dermal fibroblast cells. The MRC-5 cell line is derived from normal lung tissue of a fetus. The LN18 cell line is a human malignant glioma cell line. The DU-145 cell line is a human prostate cancer cell line. A549 cells are human adenocarcinomic human alveolar basal epithelial cells. […]

[4] = system: Hep G2 cells; experiment: MTT cell proliferation assay, Hep G2; format: cell-based; conditions: Homo sapiens, HepG2, incubation approximately 64-72 hours
Procedure: as §3
The M24 cell line is derived from human melanoma cells. The U2OS cell line is a human osteosarcoma cell line expressing wild type p53 and Rb, but lacking p16. The MM1S cell line is a multiple myeloma cell line; the parent cell line, MM.1, was established from peripheral blood of a multiple myeloma patient who had become resistant to steroid-based therapy. The RPMI8226 cell line is derived from human B lymphocyte cells. NHDF cells are normal human dermal fibroblast cells. The MRC-5 cell line is derived from normal lung tissue of a fetus. The LN18 cell line is a human malignant glioma cell line. The DU-145 cell line is a human prostate cancer cell line. A549 cells are human adenocarcinomic human alveolar basal epithelial cells. The MOLT4 cell line is a human acute lymphoblastic leukemia cell line. The THP1 cell line is a human leukemic monocytic cell line derived from peripheral blood. The OCIAML5 cell line is a human acute myeloid leukemia cell line. The MDA-MB-231 cell line is a human breast adenocarcinoma cell line. The MDA-MB-468 cell line is a human breast carcinoma cell line. HL-60 cells are human promyelocytic leukemia cells. Hep G2 cells are human hepatocellular carcinoma cells. HEP 3B cells are human hepatocellular carcinoma cells. The DLD-1 cell line is a colorectal adenocarcinoma cell line. The HCT-15 cell line is a human colon carcinoma cell line. The Colo-205 cell line is derived from a human adenocarcinoma of the colon. […]

[5] = system: PAK4 interactors and downstream proteins; experiment: Immunoblots of PAK4 interactors and downstream proteins in U2OS cells; format: cell-based, human; conditions: 0.5 μM or 5 μM, 72 hours
Procedure: Immunoblots were used to measure the effects of exemplary compounds on protein steady-state levels and phophorylation of PAK4 interactor and downstream proteins. Specifically, U2OS (osteosarcoma) cells were split and plated on day 1. After overnight attachment to the tissue culture plate, cells were treated with either DMSO (0), 37 nM, 111 nM, 333 nM, 1 μM, or 3 μM Compound 246 for 72 hours. Cells were collected, washed and lysed in RIPA buffer. After obtaining the protein concentration by BCA assay, lysates were boiled in loading buffer and run on SDS-PAGE. The gels were transferred to nitrocellulose membranes and blotted with antibodies raised against phosphor-PAK4, PAK4, phophos-beta-catenin, beta-catenin, GEF-H1, phospho-Akt, Akt, phospho-ERK1/2, ERK1/2, phospho-cofilin, cofilin, phospho-histone H3, histone H3, cyclin D1, Mcl-1, Bcl-2, p21, survivin, caspase 8, caspase 3, PARP, and beta-actin (loading control).
In another experiment, U2OS (osteosarcoma) cells were split and plated on day 1. After overnight attachment to the tissue culture plate, cells were treated with DMSO (Ct), 0.5 μM, or 5 μM of Compound 124, 369, 226, 246, or 907 for 72 hours. Cells were collected, washed and lysed in RIPA buffer. After obtaining the protein concentration by BCA assay, lysates were boiled in loading buffer and run on SDS-PAGE. The gels were transferred to nitrocellulose membranes and blotted with antibodies raised against phophos-beta-catenin, cyclin D1, PAK4, phospho-cofilin, and beta-actin (loading control).

[6] = system: MS751 cells; experiment: MTT cell proliferation assay, MS751; format: cell-based, human; conditions: Homo sapiens, MS751, MS751 cells, approximately 64-72 hours incubation; read-out: MTT Assay IC50, MS751
Outline: as §2

[7] = system: 3T3 cells; experiment: MTT cell proliferation assay, 3T3; format: cell-based, mouse; conditions: Mus musculus, NIH3T3, 3T3 cells, approximately 64-72 hours incubation; read-out: MTT Assay IC50, 3T3
Outline: as §2

[8] = system: SNU-182 cell line; experiment: MTT cell proliferation assay, SNU-182; format: cell-based; conditions: Homo sapiens, incubation approximately 64-72 hours
Procedure: as §1

[9] = system: A549 cells; experiment: MTT cell proliferation assay, A549; format: cell-based; conditions: Homo sapiens, incubation approximately 64-72 hours
Procedure: as §1

[10] = system: HCT-15 cell line; experiment: MTT cell proliferation assay, HCT-15; format: cell-based; conditions: Homo sapiens, incubation approximately 64-72 hours
Procedure: as §1

[11] = system: L3.6pl cell line; experiment: MTT cell proliferation assay, L3.6pl; format: cell-based; conditions: Homo sapiens, incubation approximately 64-72 hours
Procedure: as §1

[12] = system: OCIAML5 cell line; experiment: MTT cell proliferation assay, OCIAML5; format: cell-based; conditions: Homo sapiens, OCI-AML-5, incubation approximately 64-72 hours
Procedure: as §1

[13] = system: MOLT4 cell line; experiment: MTT cell proliferation assay, MOLT4; format: cell-based; conditions: Homo sapiens, MOLT-4, incubation approximately 64-72 hours
Procedure: as §1

[14] = system: Daudi cell line; experiment: MTT cell proliferation assay, Daudi; format: cell-based; conditions: Homo sapiens, incubation approximately 64-72 hours
Procedure: as §1

[15] = system: MM1S cell line; experiment: MTT cell proliferation assay, MM1S; format: cell-based; conditions: Homo sapiens, MM1.S, incubation approximately 64-72 hours
Procedure: as §3, §4

[16] = system: LN18 cell line; experiment: MTT cell proliferation assay, LN18; format: cell-based; conditions: Homo sapiens, LN-18, incubation approximately 64-72 hours
Procedure: as §1

[17] = system: THP1 cell line; experiment: MTT cell proliferation assay, THP1; format: cell-based; conditions: Homo sapiens, THP-1, incubation approximately 64-72 hours
Procedure: as §1

[18] = system: MDA-MB-231 cell line; experiment: MTT cell proliferation assay, MDA-MB-231; format: cell-based; conditions: Homo sapiens, incubation approximately 64-72 hours
Procedure: as §1

[19] = system: HL-60 cells; experiment: MTT cell proliferation assay, HL-60; format: cell-based; conditions: Homo sapiens, incubation approximately 64-72 hours
Procedure: as §1

Nc1ccc(/C=C/C(=O)NCC2Cc3cc(-c4ccc(C(=O)N5CC(F)(F)C5)cc4)cc(Cl)c3O2)cn1 (stereo not drawn) [Compound 226, (E)-3-(6-aminopyridin-3-yl)-N-((7-chloro-5-(4-(3,3-difluoroazetidine-1-carbonyl)phenyl)-2,3-dihydrobenzofuran-2-yl)methyl)acrylamide]
5 to 30 µM: IC50 [7]
< 100 nM: IC50 [2] | IC50 [3] | IC50 [4] | IC50 [6] | IC50 [8]
decrease: PAK4 total protein [5]
> 30 µM: IC50 [1]
decreases in phosphorylation: phosphorylation of PAK4 signaling proteins beta-catenin and cofilin [5]

Nc1ccc(/C=C/C(=O)NCC2Cc3cc(-c4ccc(C(=O)N5CCOCC5)cc4)cc(Cl)c3O2)cn1 (stereo not drawn) [Compound 302, (E)-3-(6-Aminopyridin-3-yl)-N-((7-chloro-5-(4-(morpholine-4-carbonyl)phenyl)-2,3-dihydrobenzofuran-2-yl)methyl)acrylamide]
< 100 nM: IC50 [2] | IC50 [10] | IC50 [4] | IC50 [6] | IC50 [12] | IC50 [13] | IC50 [14] | IC50 [15]
100 to 5000 nM: IC50 [9] | IC50 [11] | IC50 [16] | IC50 [17] | IC50 [18] | IC50 [19]
0.1 to 5 µM: IC50 [7]
